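Five concentrations, 48 hours, 96-well plates. GI50 = concentration required for 50% inhibition of growth.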 Calls of active or inactive are those of the source. No stated cut-off is given here; in the data, active = GI50 up to about 1.1 µM and inactive = higher. Where a SMILES comes first, the peptide text is derived from it. The star is where a group is joined. Boc = CC(C)(C)OC(=O)*
Experiments:
Experiment in all cases: NCI anticancer screen, dose series, 48 h
NCI-H226 = test system: NCI-H226
U-251 = test system: U-251
SW-620 = test system: SW-620
HCT-116 = test system: HCT-116
HL-60 = test system: HL-60
ACHN = test system: ACHN
OVCAR-4 = test system: OVCAR-4
MOLT-4 = test system: MOLT-4
HOP-92 = test system: HOP-92
K562 = test system: K562
SN12C = test system: SN12C
SF-268 = test system: SF-268
NCI-H23 = test system: NCI-H23
COLO 205 = test system: COLO 205
RXF 393 = test system: RXF 393
LOX IMVI = test system: LOX IMVI

Measured: GI50

COc1ccc(/C(Cl)=C/c2ccc(Cl)c(Cl)c2)cc1
inactive: NCI-H226 14.9 µM | U-251 21.5 µM | SW-620 43.2 µM | HCT-116 22.7 µM | HL-60 17.3 µM | ACHN 24.8 µM | OVCAR-4 41.5 µM | MOLT-4 16.2 µM | HOP-92 30.1 µM | K562 35.1 µM | SN12C 29.4 µM | SF-268 35.5 µM | NCI-H23 19 µM | COLO 205 22.1 µM | RXF 393 15.2 µM

COC1/C(=C\C(C)=O)c2ccccc2N1C(C)=O (stereo not drawn)
inactive: U-251 > 100 µM | SW-620 > 100 µM | HCT-116 > 100 µM | HL-60 > 100 µM | ACHN > 100 µM | OVCAR-4 > 100 µM | MOLT-4 > 100 µM | HOP-92 > 100 µM | K562 > 100 µM | SN12C > 100 µM | NCI-H23 > 100 µM | COLO 205 > 100 µM | RXF 393 > 100 µM

S=c1sc2c(n1-c1ccccc1)N=CNC2S (stereo not drawn)
inactive: LOX IMVI > 100 µM | NCI-H226 44.6 µM | U-251 36.1 µM | SW-620 > 100 µM | HCT-116 98.4 µM | HL-60 71.6 µM | ACHN 60.5 µM | OVCAR-4 > 100 µM | MOLT-4 92.5 µM | HOP-92 25.9 µM | K562 63.2 µM | SN12C 69.3 µM | SF-268 56.5 µM | NCI-H23 63 µM | COLO 205 > 100 µM | RXF 393 > 100 µM

Cc1ccc(C(=O)O/N=C2/CCCCC2CN(C)C)cc1 (stereo not drawn)
inactive: LOX IMVI > 100 µM | NCI-H226 > 100 µM | U-251 > 100 µM | HCT-116 > 100 µM | HL-60 > 100 µM | ACHN > 100 µM | OVCAR-4 > 100 µM | MOLT-4 > 100 µM | HOP-92 > 100 µM | K562 > 100 µM | SN12C > 100 µM | SF-268 > 10 µM | NCI-H23 > 100 µM | COLO 205 > 100 µM | RXF 393 > 100 µM

CSc1cnc2ccccc2c1Sc1c[nH]c2ccccc2c1=O
inactive: LOX IMVI 11.5 µM | NCI-H226 7.31 µM | U-251 6.49 µM | SW-620 3.56 µM | HCT-116 9.48 µM | HL-60 3.3 µM | ACHN 15.1 µM | OVCAR-4 14.1 µM | MOLT-4 3.28 µM | HOP-92 8.39 µM | K562 3.46 µM | SN12C 11.8 µM | SF-268 17.3 µM | NCI-H23 11.3 µM | COLO 205 6.24 µM | RXF 393 13.7 µM

O=[N+]([O-])c1ccc(/C=C/c2ccc(/C=C/c3ccc([N+](=O)[O-])cc3[N+](=O)[O-])cc2)c([N+](=O)[O-])c1
inactive: NCI-H226 > 100 µM | U-251 > 100 µM | SW-620 > 100 µM | HCT-116 > 100 µM | HL-60 > 100 µM | ACHN > 100 µM | OVCAR-4 > 100 µM | MOLT-4 > 100 µM | K562 > 100 µM | NCI-H23 > 100 µM | RXF 393 > 100 µM

COc1ccc(Br)c(CCCCC(=O)O)c1
inactive: LOX IMVI > 100 µM | U-251 > 100 µM | SW-620 > 100 µM | HCT-116 > 100 µM | HL-60 > 100 µM | ACHN > 100 µM | OVCAR-4 > 100 µM | MOLT-4 > 100 µM | HOP-92 2.89 µM | K562 > 100 µM | SN12C > 100 µM | NCI-H23 > 100 µM | COLO 205 > 100 µM | RXF 393 > 100 µM

O=C(CC1(O)C(=O)Nc2ccccc21)c1ccco1 (stereo not drawn)
inactive: LOX IMVI > 100 µM | NCI-H226 > 100 µM | SW-620 > 100 µM | HCT-116 > 100 µM | HL-60 > 100 µM | ACHN > 100 µM | OVCAR-4 > 100 µM | MOLT-4 > 100 µM | HOP-92 > 100 µM | K562 > 100 µM | SN12C > 100 µM | SF-268 > 100 µM | NCI-H23 > 100 µM | COLO 205 > 100 µM | RXF 393 > 100 µM

COc1ccc(NC(=O)CC(=O)n2nc(-c3ccccc3)c(/N=N/c3ccccc3C(=O)O)c2-c2ccccc2)cc1
inactive: LOX IMVI > 100 µM | NCI-H226 69.3 µM | U-251 42.6 µM | SW-620 > 100 µM | HCT-116 > 100 µM | ACHN > 100 µM | OVCAR-4 92.5 µM | MOLT-4 40.6 µM | HOP-92 18.5 µM | K562 52.7 µM | SN12C > 100 µM | SF-268 > 100 µM | NCI-H23 > 100 µM | COLO 205 > 100 µM | RXF 393 28.8 µM

COc1ccc2c(C(=O)O)cc3cc(OC)c(OC)cc3c2c1
inactive: LOX IMVI > 100 µM | NCI-H226 > 100 µM | U-251 > 100 µM | SW-620 > 100 µM | HCT-116 > 100 µM | HL-60 57.4 µM | ACHN > 100 µM | MOLT-4 > 100 µM | HOP-92 > 100 µM | K562 > 100 µM | SN12C > 100 µM | SF-268 > 100 µM | NCI-H23 > 100 µM | COLO 205 > 100 µM | RXF 393 > 100 µM

COC(=O)Cc1cc(=O)[nH]c2c1C(=O)CCC2
inactive: NCI-H226 > 100 µM | U-251 > 100 µM | SW-620 > 100 µM | HL-60 > 100 µM | ACHN > 100 µM | MOLT-4 > 100 µM | HOP-92 > 100 µM | K562 > 100 µM | SN12C > 100 µM | SF-268 > 100 µM | NCI-H23 > 100 µM | RXF 393 > 100 µM

N#Cc1c(NN)nc(NN)c(C#N)c1-c1ccccc1
inactive: LOX IMVI > 100 µM | NCI-H226 52.8 µM | SW-620 > 100 µM | HCT-116 > 100 µM | HL-60 > 100 µM | ACHN > 100 µM | OVCAR-4 > 100 µM | MOLT-4 > 100 µM | HOP-92 > 100 µM | K562 > 100 µM | SN12C > 100 µM | SF-268 > 100 µM | NCI-H23 > 100 µM | COLO 205 > 100 µM | RXF 393 96.6 µM

CCC(=O)c1cn(C)c(=O)c2ccccc12
inactive: LOX IMVI > 100 µM | NCI-H226 > 100 µM | U-251 > 100 µM | SW-620 > 100 µM | HL-60 > 100 µM | ACHN > 100 µM | OVCAR-4 > 100 µM | MOLT-4 > 100 µM | HOP-92 > 100 µM | K562 > 100 µM | SN12C > 100 µM | SF-268 > 100 µM | NCI-H23 > 100 µM | COLO 205 > 100 µM | RXF 393 > 100 µM

CC(C)(C)OC(=O)NC(Cc1ccc(O)cc1)C(=O)N1CCCC1C(=O)O (stereo not drawn) (Boc-Tyr-Pro-OH; configuration not given here)
inactive: LOX IMVI > 100 µM | NCI-H226 > 100 µM | U-251 > 100 µM | SW-620 > 100 µM | HCT-116 > 100 µM | HL-60 > 100 µM | ACHN > 100 µM | OVCAR-4 > 100 µM | MOLT-4 > 100 µM | HOP-92 > 100 µM | K562 > 100 µM | SN12C > 100 µM | SF-268 > 100 µM | NCI-H23 > 100 µM | COLO 205 > 100 µM | RXF 393 > 100 µM

From ChEMBL document CHEMBL1201862, “PubChem BioAssay data set” (2004)
